Where two headings read alike, the source gives them in different places.
Columns and labels:
in vitro = conditions: human
human α-coronavirus 229E = assay: Viral inhibition (CPE / cell viability readout) in 16HBE cells infected by α-coronavirus 229E; format: cell-based; conditions: for EC50: 120 h, read-out: EC50 (concentration which results in 50% viral inhibition)
Protocol: The EC50 and CC50 of SR-31747 were determined in an in vitro model of infection by human α-coronavirus 229E.
Briefly, a dilution series of SR-31747 (8-point, half-log dose titration, 30 μM-10 nM) was added to 16HBE cells. Vehicle and positive control (remdesivir, 8-point, half-log dose titration, 20 μM-6.4 nM) wells were set up to control for any influence of the compounds alone on cell viability. Cells were visually inspected for the appearance of any cytopathic effects (CPE). A cell viability assay was performed once CPE was complete.
The readouts were: • EC50: The concentration which results in 50% viral inhibition, following the addition of compounds; • CC50: The concentration which results in 50% cell viability, following the addition of compounds; • Selectivity index: Calculated as CC50/EC50.
Protocol: • 1. 16HBE cells permissible to infection by α-coronavirus 229E were grown and seeded into 96-well plates to a confluency of 80-90%. • 2. The compounds SR-31747 and remdesivir (positive control) were serially diluted half-log into 8 concentrations in total and added to cells for 1 hour at 37° C. • 3. After 1 hour, α-coronavirus 229E was added at 100xTCID50. A mock infection of blank media was added to the uninfected controls. • 4. After infection, the virus/compound was removed and an overlay medium was added, with equivalent concentrations of the compounds. • 5. […] Once CPE was observed, supernatants were taken and stored at −80° C. • 7. A cell viability assay was then performed on all conditions, with cells receiving the treatment compared to the vehicle treated and uninfected controls. Calculations are as follows:
% viral inhibition=[(A-B)/(C-B)] x100, where: • A: mean optical density of test, B: mean optical density of virus controls, C: mean optical density of cell controls. • Negative values occur when A<B, due either to natural variation or compound toxicity.

SARS-CoV-2 [1] = assay: microbe, parasite or virus in culture; format: cell-based; conditions: Severe acute respiratory syndrome coronavirus 2; A549-ACE2 cells, MOI 0,1, 72 hours, viral replication inhibition; read-out: RTqPCR: IC50
SARS-CoV-2 [2] = assay: SARS-CoV-2-infected golden hamster model of COVID-19; format: in vivo; conditions: infected hamsters
Source text: SR-31747 was used freshly diluted in a diluent consisting of […], 5% ethanol and 5% tween-80.
24 male hamsters RjHan:AURA SPF were acclimated during 7 days and distributed in 4 groups of 6 hamsters each: • Group 1: Infected by SARS-CoV-2 and treated by SR-31747 • Group 2: Infected by SARS-CoV-2 and treated by diluent (negative control) • Group 3: Non-infected and treated by SR-31747 • Group 4: Non-infected and treated by diluent
On day 0, hamsters were infected intranasally by SARS-CoV-2 and received a first intraperitoneal injection of SR-31747 at 40 mg/kg.
On days 1, 2 and 3 the hamsters received an intraperitoneal injection of SR-31747 at 40 mg/kg. On day 4 sera and lungs from the hamsters were sampled.
From day 0 of day 4, the body temperature of the hamsters was measured at both flanks using a touchless infrared thermometer and a cumulative clinical score was determined (ruffled fur (no=0 or yes=1), slow movements (no=0, yes=1), apathy (no=0, yes=1), absence of rearing/exploration (no=0, yes=1)).
An olfactory test was conducted on day 3 preceded by a day of fasting. Briefly, cereals were buried in the litter of an individual cage and the latency to find the hidden cereals by the hamsters was measured.

Question: What does the source list for `CCC(CC)COC(=O)[C@H](C)N[P@](=O)(OC[C@H]1O[C@@](C#N)(c2ccc3c(N)ncnn23)[C@H](O)[C@@H]1O)Oc1ccccc1` [Remdesivir, remdesivir, reference compound]?
Answer: CC50 (in vitro): > 20 µM; EC50 (human α-coronavirus 229E; 16HBE): 0.34 µM

Question: Which results are given for `CCN(C/C=C\c1ccc(C2CCCCC2)c(Cl)c1)C1CCCCC1` [SR-31747, N-[(Z)-3-(3-chloro-4-cyclohexylphenyl)prop-2-enyl]-N-ethylcyclohexanamine]?
Answer: IC50 (SARS-CoV-2 [1]): 2.88 µM; Cumulative clinical score (SARS-CoV-2 [2]; 40 mg/kg intraperitoneal days 0-3, day 4, p=0,009 Mann-Whitney test): significantly reduces; Olfactory test: latency to find hidden cereals (SARS-CoV-2 [2]; 40 mg/kg intraperitoneal, day 3): alleviates the olfactory dysfunction; Lung weight (SARS-CoV-2 [2]; 40 mg/kg intraperitoneal, day 4, increase due to infection): significantly alleviated; Body temperature (SARS-CoV-2 [2]; 40 mg/kg intraperitoneal, days 2 and 4): significantly increases; EC50 (human α-coronavirus 229E; 16HBE cells, α-coronavirus 229E at 100xTCID50, about 5 days): 1.36 µM; Selectivity index (CC50/EC50) (human α-coronavirus 229E; α-coronavirus 229E, 16HBE cells): 5
